Where two headings read alike, the source gives them in different places.
What was measured:
[1] = tested on: antigen-specific T cell activation; assay: antigen-specific (mBSA) activation of splenic T lymphocytes, 3H-thymidine incorporation; assay type: cell-based, mice; details: for EC50: Mus musculus, T-cell, read-out: EC50, inhibition of T cell activation
Protocol: C57BL6/J male mice, aged 7-10 weeks old, were immunised with 200 μg of methylated bovine serum albumin (mBSA) dissolved in 20 μL of saline, emulsified in 200 μL of Freund's complete adjuvant (FCA) by subcutaneous injection. Seven (7) days later mice received a booster immunisation with 100 μg mBSA in 10 μL saline plus 100 μL FCA by subcutaneous injection. After a further seven (7) days mice were killed and spleens collected aseptically into Hanks buffered saline solution (HBSS). A single cell suspension was prepared in Petri dishes by flushing DMEM using a 26G needle and 2 mL syringe. The resulting cell suspension was centrifuged for 5-7 minutes and supernatant discarded. Erythrocytes were lysed using a solution containing 0.579% NH4Cl, 0.000037% EDTA, and 0.1% NaHCO3 in a 37° C. water bath. Tubes were then filled with DMEM and centrifuged for 5-7 minutes. The cell-containing pellet was then resuspended in DMEM containing 5% fetal calf serum TICS) and 0.05% 2-mercapto-ethanol at a concentration of 1×10^6 cells/mL and plated at 1×10^5 cells/well in 96-well plastic tissue culture plates. Test substances (compound or vehicle) were added and incubated for 1 hour in a 37° C., 5% CO2 incubator. The specific stimulating antigen, mBSA, was then added at 10-50 μg/ml and plates incubated for 30 hours in a 37° C., 5% CO2 incubator. Tritiated ^3H-thymidine was then added at a concentration of 0.5 μCi/well for a further 18 hours. Cells were harvested on a Packard cell harvester, and the harvested material added to 750 μL/tube scintillation fluid. Scintillation counts were read on a Wallac beta-emission counter.
The concentration at which T cell activation was suppressed by 50% compared to vehicle-only-treated cells (EC50) was calculated using Prism® software. […] Further compounds were also tested for their ability to inhibit antigen-specific T cell activation as a marker of the inhibition of the cytokine or biological activity of MIF using this assay. Table 5 lists the EC50 for each compound in this assay, performed with concentrations of mBSA of either 50 or 10 μg/ml.

[2] = tested on: murine antigen induced arthritis; assay: murine antigen-induced arthritis, histological score; assay type: in vivo, mice; details: 15 mg/kg IP once per 24 hours, day 28
Protocol: Antigen-induced arthritis was induced in mice. C57BL6/J male mice, aged 7-10 weeks old, were immunized on day 0 with 200 μg methylated BSA (mBSA) emulsified in 200 μl of Freund's complete adjuvant (FCA) injected subcutaneously into the flank skin. Mice were treated with compound 5, administered by intraperitoneal injection, once per 24 hours at a dose of 15 mg/kg body weight. After seven days, mice received 100 μg mBSA and 100 μl FCA by intradermal injection at the base of the tail. After a further 14 days, arthritis was induced by intra-articular injection of 30 μg mBSA in 10 μl of sterile saline into the left knee, the right knee being injected with sterile saline alone.
Arthritis was analysed histologically at day 28 after first immunisation. Knee joints were dissected and fixed in 10% buffered formalin for 7 days. Fixed tissues were decalcified for 3 weeks in 15% ethylene-diamine-tetra-acetic acid (EDTA), dehydrated and embedded in paraffin. Sagittal sections (5 μm) of the knee joint were stained with Safranin-O and counterstained with fast green/iron hematoxylin. Histological sections were scored from 0 to 3 for four parameters: Synovitis was defined as hyper-cellularity of the synovium including pannus formation. Joint space exudate was identified as leukocytes, discretely or in aggregates, in the joint space. Cartilage degradation was defined as the loss of Safranin-O staining of articular cartilage (0=full stained cartilage, 3=totally unstained cartilage). Bone damage was defined as the extent and depth of the subchondral bone invasion by pannus. A total score was also generated from the sum of these four parameters (maximum 12).

[3] = tested on: lymph node and splenic T cells; assay: ex vivo antigen-specific T cell activation after in vivo treatment; parameters: species or system mice
From the text: In vivo administration of such a compound might be expected to exert effects on T cell responsiveness even after the T cells have been removed from exposure to the compound, that is, if T cells were studied ex vivo after in vivo treatment with the MIF antagonist compound. To measure ex vivo antigen-specific T cell activation, draining lymph nodes from arthritic limbs or spleens were removed from mice with murine antigen induced arthritis, induced as above with mBSA, at day 28 after first immunisation and a single cell suspension prepared in DMEM containing 5% FCS and 0.05% 2-mercaptoethanol. 1×10^5 cells/200 μl were cultured in triplicate in the presence or absence of mBSA (0.1, 1.0, 10 μg/ml) in 96-well plates for 48 hours (37° C., 5% CO2.) The T cell proliferation response was determined by measuring ^3H-thymidine incorporation during the final 18 hr. The cells were harvested and radioactivity incorporation into the DNA was measured with a Wallac 1409 liquid scintillation counter. The means of each triplicate culture were calculated. Each experiment comprised at least three individual animals and the results presented represent the mean±SEM of groups of animals in each experiment. The percentage inhibition of T cell proliferation was calculated using the result of the […] incorporation of cells from compound-treated animals subtracted from the ^3H-thymidine incorporation of cells from vehicle-treated animals.

[4] = tested on: murine endotoxic shock model; assay: murine endotoxic shock model (LPS), cytokines by ELISA; assay type: in vivo, mice
[5] = tested on: IL-1 induced phosphorylation of ERK; assay: IL-1 induced phosphorylation (activation) of ERK, Western blotting; assay type: cell-based, human; details: compound 5 50 μM alone; S112 cells, IL-1 0.1 ng/ml, 30 minutes
Protocol: S112 human dermal fibroblasts cultured in RPMI (serum-free) medium were stimulated with recombinant human IL-1 0.1 ng/ml, as described herein, for 30 minutes, with or without the addition of dexamethasone 10^−9M or benzimidazol-2-one-5-pentanoate (compound 5) (50 μM). The phosphorylation (activation) of ERK was assessed using Western blotting with a mAb specific for the phosphorylated (activated) form of ERK. In brief, cells were disrupted by repeated aspiration through a 21-gauge needle. After incubation on ice for 10 min and microcentrifugation at 3000 rpm for 15 min (4° C.), the supernatants were removed, the protein concentration was determined, and the lysates were stored at −80° C. Equal amounts of cellular proteins were fractionated on 10% SDS-polyacrylamide electrophoresis gels and transferred to polyvinylidene difluoride membranes. Immunoblotting was performed using antibodies directed against phospho-p44/42 (ERK) and total p44142 according to the manufacturer's instructions. The intensity of ERK activation is proportional to the size and optical density (darkness) of the resulting blots. Total ERK blots serve as a loading control, such that changes in phosphorylated ERK represent changes in phosphorylation and not in total ERK protein.

`CCCCCOC(=O)c1ccc2[nH]c(=O)[nH]c2c1` [Compound 5] was tested, and the “effect on antigen-specific T cell activation” value ([1]; FIG. 8, mBSA 50 μg/mL, increasing concentrations) was “dose-dependent and statistically significant inhibitory effect”, the EC50 ([1]; mBSA 10 μg/ml) was 15.3 µM and the EC50 ([1]; mBSA 50 μg/ml) was 13.8 µM. For the same compound, the total arthritis score ([2]; FIG. 10a, p=0.0024) was “statistically significant reduction”, the “severity of all individual parameters of arthritis” value ([2]; FIG. 10b) was “Statistically significant reductions” and the “ex vivo activation of lymph node T cells in response to mBSA” value ([3]; FIG. 11a, vs vehicle) was “reduced proliferative responses”. For the same compound, the “ex vivo splenic T cell proliferation in response to mBSA” value ([3]; FIG. 11b, table 7, vs vehicle) was “inhibitory effect”, the “% inhibition of ex vivo splenic T cell activation” value ([3]; [mBSA] 1 μg/mL) was 33% and the “% inhibition of ex vivo splenic T cell activation” value ([3]; [mBSA] 10 μg/mL) was 30%. For the same compound, the “Serum IL-6 at 6 h, LPS + cpd” value ([4]; IP injection 1 mg/kg at −1 h, LPS alone 215100) was 101000, the “Serum IL-6 at 6 h, LPS + cpd” value ([4]; IP injection 5 mg/kg at −1 h, LPS alone 215100) was 108200 and the “Serum IL-6 at 6 h, LPS + cpd” value ([4]; IP injection 15 mg/kg at −24, −12, −1 h, LPS alone 261900) was 162800. For the same compound, the “ERK activation by IL-1” value [5] was “not inhibited”.
